Where “and” joins values, the source holds several entries; their conditions need not be identical. Identical values can stand only once. Toxic doses and inconclusive results are not listed. Rule as the data show it: active = T/C of 150% or more; inactive = T/C below 125%.
System: L1210 leukemia ip in BDF1 mice, survival T/C
Assay: NCI In Vivo Anticancer Drug Screen. Data for tumor model L1210 Leukemia (intraperitoneal) in B6D2F1 (BDF1) mice
Conditions: endpoint: mean survival time, higher = longer survival
How it was run: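 Antitumor effect is assessed in tumor-bearing animals. Survival in the compound arm is compared with a vehicle-dosed control arm and expressed as their quotient.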

[1] = dose: 100.0 mg/kg/injection, schedule: Q04DX003 (ip), vehicle: saline with Tween-80
[2] = dose: 200.0 mg/kg/injection, schedule: Q04DX003 (ip), vehicle: saline with Tween-80
[3] = dose: 100.0 mg/kg/injection, schedule: Q01DX001 (ip), vehicle: saline
[4] = dose: 100.0 mg/kg/injection, schedule: Q04DX003 (ip), vehicle: saline
[5] = dose: 200.0 mg/kg/injection, schedule: Q01DX001 (ip), vehicle: saline
[6] = dose: 200.0 mg/kg/injection, schedule: Q04DX003 (ip), vehicle: saline
[7] = dose: 400.0 mg/kg/injection, schedule: Q01DX001 (ip), vehicle: saline
[8] = dose: 400.0 mg/kg/injection, schedule: Q04DX003 (ip), vehicle: saline
[9] = dose: 100.0 mg/kg/injection, schedule: Q04DX003 (ip), vehicle: Klucel (hydroxypropylcellulose) (HPC)
[10] = dose: 200.0 mg/kg/injection, schedule: Q04DX003 (ip), vehicle: Klucel (hydroxypropylcellulose) (HPC)
[11] = dose: 400.0 mg/kg/injection, schedule: Q04DX003 (ip), vehicle: Klucel (hydroxypropylcellulose) (HPC)
[12] = dose: 100.0 mg/kg/injection, schedule: Q01DX009 (ip), vehicle: saline with Tween-80
[13] = dose: 200.0 mg/kg/injection, schedule: Q01DX009 (ip), vehicle: saline with Tween-80
[14] = dose: 400.0 mg/kg/injection, schedule: Q01DX009 (ip), vehicle: saline with Tween-80
[15] = dose: 50.0 mg/kg/injection, schedule: Q01DX001 (ip), vehicle: saline
[16] = dose: 100.0 mg/kg/injection, schedule: Q01DX009 (ip), vehicle: Klucel (hydroxypropylcellulose) (HPC)
[17] = dose: 200.0 mg/kg/injection, schedule: Q01DX009 (ip), vehicle: Klucel (hydroxypropylcellulose) (HPC)

Measured: T/C

C=C1C(=O)OCC2(CC)CCCCC12 (stereo not given)
inactive: dose: 20.0 mg/kg/injection, schedule: Q01DX009 (ip), vehicle: saline with Tween-80 103 % of control | dose: 40.0 mg/kg/injection, schedule: Q01DX009 (ip), vehicle: saline with Tween-80 106 % of control | dose: 80.0 mg/kg/injection, schedule: Q01DX009 (ip), vehicle: saline with Tween-80 91 % of control | dose: 160.0 mg/kg/injection, schedule: Q01DX009 (ip), vehicle: saline with Tween-80 98 % of control

O=C1NC(=O)C2C3OC(C(Br)C3Br)C12 (stereo not given)
inactive: dose: 100.0 mg/kg/injection, schedule: Q01DX009 (ip), vehicle: acetone 86 % of control | [1] 93 % of control | dose: 200.0 mg/kg/injection, schedule: Q01DX009 (ip), vehicle: acetone 86 % of control | [2] 108 % of control | dose: 400.0 mg/kg/injection, schedule: Q01DX009 (ip), vehicle: acetone 88 % of control | dose: 400.0 mg/kg/injection, schedule: Q04DX003 (ip), vehicle: saline with Tween-80 95 % of control

Cc1c2c(c(C)c3c1[nH]c1ccccc13)CCN=C2
inactive: dose: 50.0 mg/kg/injection, schedule: Q01DX001 (ip), vehicle: carboxymethylcellulose (CMC) 104 % of control | dose: 100.0 mg/kg/injection, schedule: Q01DX001 (ip), vehicle: carboxymethylcellulose (CMC) 114 % of control | dose: 200.0 mg/kg/injection, schedule: Q01DX001 (ip), vehicle: carboxymethylcellulose (CMC) 104 % of control | dose: 400.0 mg/kg/injection, schedule: Q01DX001 (ip), vehicle: carboxymethylcellulose (CMC) 111 % of control

Nc1ncc(C[P+](c2ccccc2)(c2ccccc2)c2ccccc2)c(N)n1
inactive: dose: 12.5 mg/kg/injection, schedule: Q04DX003 (ip), vehicle: Klucel (hydroxypropylcellulose) (HPC) 102 % of control | dose: 25.0 mg/kg/injection, schedule: Q04DX003 (ip), vehicle: Klucel (hydroxypropylcellulose) (HPC) 112 % of control | dose: 50.0 mg/kg/injection, schedule: Q04DX003 (ip), vehicle: Klucel (hydroxypropylcellulose) (HPC) 105 % of control

COC1OCC(O)C(O)C1O (stereo not given)
inactive: [3] 92 % of control | [4] 98 % of control | [5] 95 % of control | [6] 106 % of control | [7] 95 % of control | [8] 101 % of control

CCCCCc1nc2c(c3c1CCCC3)CCCC2
inactive: dose: 75.0 mg/kg/injection, schedule: Q01DX001 (ip), vehicle: other 102 % of control | dose: 150.0 mg/kg/injection, schedule: Q01DX001 (ip), vehicle: other 96 % of control

CN(C(=O)N(C)S(=O)(=O)c1ccccc1)S(=O)(=O)c1ccccc1
inactive: dose: 75.0 mg/kg/injection, schedule: Q04DX003 (ip), vehicle: Klucel (hydroxypropylcellulose) (HPC) 100 % of control | dose: 150.0 mg/kg/injection, schedule: Q04DX003 (ip), vehicle: Klucel (hydroxypropylcellulose) (HPC) 101 % of control | dose: 300.0 mg/kg/injection, schedule: Q04DX003 (ip), vehicle: Klucel (hydroxypropylcellulose) (HPC) 94 % of control

O=P1(CCc2ccc(Br)cc2)CC(Br)C(Br)C1 (stereo not given)
inactive: [9] 104 % of control | [10] 106 % of control | [11] 96 % of control

Cc1cccc(C)c1N(COC(C)C)C(=O)CCl
inactive: [12] 94 % of control | [13] 95 % of control

O=c1[nH]c(-c2ccccc2)nc(-c2ccccc2)c1CCO
inactive: [12] 92 % of control | [13] 86 % of control | [14] 91 % of control

CC1OC(n2ncc(=O)[nH]c2=O)C2OC(C)(C)OC2C1=O (stereo not given)
inactive: dose: 12.5 mg/kg/injection, schedule: Q01DX005 (ip), vehicle: distilled water + Tween-80 108 % of control | dose: 25.0 mg/kg/injection, schedule: Q01DX005 (ip), vehicle: distilled water + Tween-80 95 % of control | dose: 50.0 mg/kg/injection, schedule: Q01DX005 (ip), vehicle: distilled water + Tween-80 92 % of control | dose: 100.0 mg/kg/injection, schedule: Q01DX005 (ip), vehicle: distilled water + Tween-80 95 % of control | dose: 200.0 mg/kg/injection, schedule: Q01DX005 (ip), vehicle: distilled water + Tween-80 97 % of control

O=C1NC2CC=CCC12 (stereo not given)
inactive: [12] 91 % of control | [4] 101 % of control | [13] 89 % of control | [6] 101 % of control | [14] 89 % of control | [8] 94 % of control

CCOC(=O)NC(C)(C)Cc1ccccc1
inactive: dose: 25.0 mg/kg/injection, schedule: Q01DX009 (ip), vehicle: saline with Tween-80 91 % of control | dose: 25.0 mg/kg/injection, schedule: Q04DX003 (ip), vehicle: saline with Tween-80 101 % of control | dose: 50.0 mg/kg/injection, schedule: Q01DX009 (ip), vehicle: saline with Tween-80 98 % of control | dose: 50.0 mg/kg/injection, schedule: Q04DX003 (ip), vehicle: saline with Tween-80 106 % of control | [12] 96 % of control | [1] 97 % of control and 103 % of control

O=C(O)C(Br)CN1C(=O)c2ccccc2C1=O (stereo not given)
inactive: dose: 50.0 mg/kg/injection, schedule: Q01DX009 (ip), vehicle: saline 91 % of control | dose: 100.0 mg/kg/injection, schedule: Q01DX009 (ip), vehicle: saline 95 % of control | dose: 200.0 mg/kg/injection, schedule: Q01DX009 (ip), vehicle: saline 91 % of control

CSc1ncnc2c1ncn2C1OC(CO)C2OC(C)(C)OC21 (stereo not given)
inactive: dose: 100.0 mg/kg/injection, schedule: Q01DX005 (ip), vehicle: saline 112 % of control | dose: 200.0 mg/kg/injection, schedule: Q01DX005 (ip), vehicle: saline 122 % of control

CCOC(=O)C(C(=O)CC(C)C)C(C)C (stereo not given)
inactive: [15] 103 % of control | [3] 103 % of control | [5] 109 % of control | [7] 101 % of control

CC(C)c1ccccc(=O)c1O.CC(C)c1ccccc(=O)c1O.[Cu]
inactive: [2] 91 % of control

O=C1CN(CCl)C(=O)CN1CCl
inactive: dose: 50.0 mg/kg/injection, schedule: Q01DX009 (ip), vehicle: water 100 % of control | dose: 100.0 mg/kg/injection, schedule: Q01DX009 (ip), vehicle: water 101 % of control | dose: 100.0 mg/kg/injection, schedule: Q04DX003 (ip), vehicle: water 113 % of control | dose: 200.0 mg/kg/injection, schedule: Q04DX003 (ip), vehicle: water 110 % of control | dose: 400.0 mg/kg/injection, schedule: Q04DX003 (ip), vehicle: water 113 % of control

CCCCCCCCC[As](=O)(O)CCCCCCCCC
inactive: [15] 101 % of control | [3] 98 % of control | [5] 98 % of control | [7] 101 % of control

CC(C)Cc1ccccc1
inactive: [16] 106 % of control | [9] 110 % of control | [17] 100 % of control | [10] 96 % of control | dose: 400.0 mg/kg/injection, schedule: Q01DX009 (ip), vehicle: Klucel (hydroxypropylcellulose) (HPC) 122 % of control | [11] 96 % of control

O=CNC(CSC(=O)c1ccccc1)C(=O)O (stereo not given)
inactive: [16] 101 % of control | [9] 97 % of control | [17] 101 % of control | [10] 97 % of control | [11] 94 % of control

CCc1nc2c(c(=O)[nH]1)C(c1ccc(Cl)cc1)C(C)(C)O2 (stereo not given)
inactive: dose: 200.0 mg/kg/injection, schedule: Q04DX003 (ip), vehicle: acetone 94 % of control | dose: 400.0 mg/kg/injection, schedule: Q04DX003 (ip), vehicle: acetone 105 % of control

Clc1nc2ccccc2s1
inactive: dose: 100.0 mg/kg/injection, schedule: Q01DX009 (ip), vehicle: alcohol 88 % of control | dose: 200.0 mg/kg/injection, schedule: Q01DX009 (ip), vehicle: alcohol 89 % of control

CC(=O)Nc1c(Cl)cc(Cl)cc1Cl
inactive: dose: 100.0 mg/kg/injection, schedule: Q01DX001 (ip), vehicle: saline with Tween-80 109 % of control | dose: 200.0 mg/kg/injection, schedule: Q01DX001 (ip), vehicle: saline with Tween-80 93 % of control | dose: 400.0 mg/kg/injection, schedule: Q01DX001 (ip), vehicle: saline with Tween-80 95 % of control
